Data published in patent US20120034613A1, “Apparatus and Method for Testing Relationships Between Gene Expression and Physical Appearance of Skin” (NSE Products, Inc., priority 2010, published 2012).

Test system: EpidermFT™ Skin Model (EFT-400) full thickness skin cultures
Experiment: Affymetrix GeneChip HG U133 Plus 2.0 microarray global gene expression, agent-exposed vs untreated skin cultures
Format: cell-based, human
[1] = probe 206026_s_at, Table 3 skin structure
[2] = probe 209126_x_at, Table 3 skin structure
[3] = probe 209792_s_at, Table 3 skin structure

OCc1ccccc1O[C@@H]1O[C@H](CO)[C@@H](O)[C@H](O)[C@H]1O [Salicin, 2-(Hydroxymethyl)phenyl β-D-glucospyranoside]
Direction PTPRG (probe 204944_at, 0.5%, 24 hr): up | Fold change PTPRG (probe 204944_at, 0.5%, 24 hr): 2.299 | Direction ITGB4 (probe 204990_s_at, 0.5%, 24 hr): down | Fold change ITGB4 (probe 204990_s_at, 0.5%, 24 hr): 4.527 | Direction FGFBP1 (probe 205014_at, 0.5%, 24 hr): down | Fold change FGFBP1 (probe 205014_at, 0.5%, 24 hr): 3.406 | Direction TGFA (probe 205015_s_at, 0.5%, 24 hr): down | Fold change TGFA (probe 205015_s_at, 0.5%, 24 hr): 3.134 | Direction FGF13 (probe 205110_s_at, 0.5%, 24 hr): up | Fold change FGF13 (probe 205110_s_at, 0.5%, 24 hr): 2.158 | Direction PTGS1 (probe 205128_x_at, 0.5%, 24 hr): up | Fold change PTGS1 (probe 205128_x_at, 0.5%, 24 hr): 2.327 | Direction IL6 (probe 205207_at, 0.5%, 24 hr): up | Fold change IL6 (probe 205207_at, 0.5%, 24 hr): 3.197 | Direction LIF (probe 205266_at, 0.5%, 24 hr): up | Fold change LIF (probe 205266_at, 0.5%, 24 hr): 3.702 | Direction ATP2B4 (probe 205410_s_at, 0.5%, 24 hr): up | Fold change ATP2B4 (probe 205410_s_at, 0.5%, 24 hr): 3.984 | Direction KLK11 (probe 205470_s_at, 0.5%, 24 hr): down | Fold change KLK11 (probe 205470_s_at, 0.5%, 24 hr): 3.318 | Direction TAGLN (probe 205547_s_at, 0.5%, 24 hr): up | Fold change TAGLN (probe 205547_s_at, 0.5%, 24 hr): 2.426 | Direction EREG (probe 205767_at, 0.5%, 24 hr): up | Fold change EREG (probe 205767_at, 0.5%, 24 hr): 2.487 | Direction FGF7 (probe 205782_at, 0.5%, 24 hr): up | Fold change FGF7 (probe 205782_at, 0.5%, 24 hr): 3.158 | Direction KLK13 (probe 205783_at, 0.5%, 24 hr): down | Fold change KLK13 (probe 205783_at, 0.5%, 24 hr): 3.619 | Direction CLGN (probe 205830_at, 0.5%, 24 hr): up | Fold change CLGN (probe 205830_at, 0.5%, 24 hr): 2.486 | Direction KRT1 (probe 205900_at, 0.5%, 24 hr): down | Fold change KRT1 (probe 205900_at, 0.5%, 24 hr): 4.141 | Direction CREB5 (probe 205931_s_at, 0.5%, 24 hr): up | Fold change CREB5 (probe 205931_s_at, 0.5%, 24 hr): 9.909 | Direction IL15 (probe 205992_s_at, 0.5%, 24 hr): up | Fold change IL15 (probe 205992_s_at, 0.5%, 24 hr): 4.326 | Direction TNFAIP6 (probe 206025_s_at, 0.5%, 24 hr): up | Fold change TNFAIP6 (probe 206025_s_at, 0.5%, 24 hr): 3.182 | Direction TNFAIP6 [1]: up | Fold change TNFAIP6 [1]: 2.52 | Direction DSC3 (probe 206033_s_at, 0.5%, 24 hr): down | Fold change DSC3 (probe 206033_s_at, 0.5%, 24 hr): 4.676 | Direction BMP6 (probe 206176_at, 0.5%, 24 hr): up | Fold change BMP6 (probe 206176_at, 0.5%, 24 hr): 7.765 | Direction CDSN (probe 206193_s_at, 0.5%, 24 hr): down | Fold change CDSN (probe 206193_s_at, 0.5%, 24 hr): 11.11 | Direction MAP3K13 (probe 206249_at, 0.5%, 24 hr): up | Fold change MAP3K13 (probe 206249_at, 0.5%, 24 hr): 2.252 | Direction IL18 (probe 206295_at, 0.5%, 24 hr): down | Fold change IL18 (probe 206295_at, 0.5%, 24 hr): 19.31 | Direction CCL13 (probe 206407_s_at, 0.5%, 24 hr): up | Fold change CCL13 (probe 206407_s_at, 0.5%, 24 hr): 5.516 | Direction F2RL1 (probe 206429_at, 0.5%, 24 hr): down | Fold change F2RL1 (probe 206429_at, 0.5%, 24 hr): 2.099 | Direction IL24 (probe 206569_at, 0.5%, 24 hr): up | Fold change IL24 (probe 206569_at, 0.5%, 24 hr): 8.737 | Direction IL18R1 (probe 206618_at, 0.5%, 24 hr): up | Fold change IL18R1 (probe 206618_at, 0.5%, 24 hr): 2.865 | Direction HAL (probe 206643_at, 0.5%, 24 hr): down | Fold change HAL (probe 206643_at, 0.5%, 24 hr): 55.87 | Direction DGKI (probe 206806_at, 0.5%, 24 hr): up | Fold change DGKI (probe 206806_at, 0.5%, 24 hr): 2.74 | Direction IL11 (probe 206924_at, 0.5%, 24 hr): up | Fold change IL11 (probe 206924_at, 0.5%, 24 hr): 9.694 | Direction IL8RB (probe 207008_at, 0.5%, 24 hr): down | Fold change IL8RB (probe 207008_at, 0.5%, 24 hr): 11.11 | Direction DSC1 (probe 207324_s_at, 0.5%, 24 hr): down | Fold change DSC1 (probe 207324_s_at, 0.5%, 24 hr): 12.95 | Direction PTGES (probe 207388_s_at, 0.5%, 24 hr): up | Fold change PTGES (probe 207388_s_at, 0.5%, 24 hr): 2.768 | Direction CSF3 (probe 207442_at, 0.5%, 24 hr): up | Fold change CSF3 (probe 207442_at, 0.5%, 24 hr): 11.09 | Direction IL1RL1 (probe 207526_s_at, 0.5%, 24 hr): up | Fold change IL1RL1 (probe 207526_s_at, 0.5%, 24 hr): 9.09 | Direction LCE2B (probe 207710_at, 0.5%, 24 hr): down | Fold change LCE2B (probe 207710_at, 0.5%, 24 hr): 200.5 | Direction LOR (probe 207720_at, 0.5%, 24 hr): down | Fold change LOR (probe 207720_at, 0.5%, 24 hr): 32.35 | Direction KRT9 (probe 208188_at, 0.5%, 24 hr): down | Fold change KRT9 (probe 208188_at, 0.5%, 24 hr): 2.539 | Direction SPRR2B (probe 208539_x_at, 0.5%, 24 hr): down | Fold change SPRR2B (probe 208539_x_at, 0.5%, 24 hr): 5.554 | Direction PDE3B (probe 208591_s_at, 0.5%, 24 hr): up | Fold change PDE3B (probe 208591_s_at, 0.5%, 24 hr): 2.851 | Direction FADS1 (probe 208962_s_at, 0.5%, 24 hr): up | Fold change FADS1 (probe 208962_s_at, 0.5%, 24 hr): 2.889 | Direction KRT6A (probe 209125_at, 0.5%, 24 hr): down | Fold change KRT6A (probe 209125_at, 0.5%, 24 hr): 2.034 | Direction KRT6B [2]: down | Fold change KRT6B [2]: 3.952 | Direction TM4SF1 (probe 209387_s_at, 0.5%, 24 hr): up | Fold change TM4SF1 (probe 209387_s_at, 0.5%, 24 hr): 3.187 | Direction SPON1 (probe 209437_s_at, 0.5%, 24 hr): up | Fold change SPON1 (probe 209437_s_at, 0.5%, 24 hr): 2.36 | Direction CALM1 /// CALM2 /// CALM3 (probe 209563_x_at, 0.5%, 24 hr): down | Fold change CALM1 /// CALM2 /// CALM3 (probe 209563_x_at, 0.5%, 24 hr): 2.029 | Direction GATA3 (probe 209602_s_at, 0.5%, 24 hr): down | Fold change GATA3 (probe 209602_s_at, 0.5%, 24 hr): 15.7 | Direction CXCL2 (probe 209774_x_at, 0.5%, 24 hr): up | Fold change CXCL2 (probe 209774_x_at, 0.5%, 24 hr): 7.546 | Direction CASP6 (probe 209790_s_at, 0.5%, 24 hr): down | Fold change CASP6 (probe 209790_s_at, 0.5%, 24 hr): 2.668 | Direction KLK10 [3]: down | Fold change KLK10 [3]: 4.49 | Direction PKP3 (probe 209873_s_at, 0.5%, 24 hr): down | Fold change PKP3 (probe 209873_s_at, 0.5%, 24 hr): 4.615 | Direction CALML3 (probe 210020_x_at, 0.5%, 24 hr): down | Fold change CALML3 (probe 210020_x_at, 0.5%, 24 hr): 11.27 | Direction CSF2 (probe 210229_s_at, 0.5%, 24 hr): up | Fold change CSF2 (probe 210229_s_at, 0.5%, 24 hr): 16.55 | Direction FLT1 (probe 210287_s_at, 0.5%, 24 hr): up | Fold change FLT1 (probe 210287_s_at, 0.5%, 24 hr): 3.95 | Direction HYAL1 (probe 210619_s_at, 0.5%, 24 hr): down | Fold change HYAL1 (probe 210619_s_at, 0.5%, 24 hr): 4.538
